Laboratory results as given in the supplement of paper PMC10307832.

How the values were obtained:
Experiment in all cases: relative viability (nuclei count vs DMSO), 5 days (fraction); higher = more cells survive
Bemcentinib + Pictilisib = compound: Nc1nc(Nc2ccc3c(c2)CC[C@@H](N2CCCC2)CC3)nn1-c1cc2c(nn1)-c1ccccc1CCC2 [Bemcentinib] + CS(=O)(=O)N1CCN(Cc2cc3nc(-c4cccc5[nH]ncc45)nc(N4CCOCC4)c3s2)CC1 [Pictilisib] (partner 1 µM)
In short: (§1)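 Lung cancer cell lines were pin-tool dosed in 1536-well plates on the day after seeding, with either a lone drug or a fixed anchor-drug dose plus five library-drug doses (not always all listed) in √10 steps. Nuclei were counted on 4× images after 5 days. Relative viability is the ratio of treated-well to vehicle-well nuclei counts, with each value a median of duplicate plates.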

Bemcentinib + Bortezomib = compound: Nc1nc(Nc2ccc3c(c2)CC[C@@H](N2CCCC2)CC3)nn1-c1cc2c(nn1)-c1ccccc1CCC2 [Bemcentinib] + CC(C)C[C@H](NC(=O)[C@H](Cc1ccccc1)NC(=O)c1cnccn1)B(O)O [Bortezomib] (partner 0.002 µM)
In short: as §1

Bemcentinib + Olaparib = compound: Nc1nc(Nc2ccc3c(c2)CC[C@@H](N2CCCC2)CC3)nn1-c1cc2c(nn1)-c1ccccc1CCC2 [Bemcentinib] + O=C(c1cc(Cc2n[nH]c(=O)c3ccccc23)ccc1F)N1CCN(C(=O)C2CC2)CC1 [Olaparib] (partner 8 µM)
In short: as §1

[1] = compound: CC1=CC=C(C=C1)C(=O)CN2C3=C(CCCC3)SC2=N [Pifithrin_alpha] + Cc1cc(Nc2cc(N3CCN(C)CC3)nc(Sc3ccc(NC(=O)C4CC4)cc3)n2)n[nH]1 [Tozasertib] (partner 0.1 µM)
In short: as §1

Cell Line | relative viability (Bemcentinib + Pictilisib; first compound 0.04 µM) | relative viability (Bemcentinib + Pictilisib; first compound 0.1265 µM) | relative viability (Bemcentinib + Pictilisib; first compound 0.4 µM) | relative viability (Bemcentinib + Pictilisib; first compound 1.265 µM) | relative viability (Bemcentinib + Pictilisib; first compound 4 µM) | relative viability (Bemcentinib + Bortezomib; first compound 0.04 µM) | relative viability (Bemcentinib + Bortezomib; first compound 0.1265 µM) | relative viability (Bemcentinib + Bortezomib; first compound 0.4 µM) | relative viability (Bemcentinib + Bortezomib; first compound 1.265 µM) | relative viability (Bemcentinib + Bortezomib; first compound 4 µM) | relative viability (Bemcentinib + Olaparib; first compound 0.04 µM) | relative viability (Bemcentinib + Olaparib; first compound 0.1265 µM) | relative viability (Bemcentinib + Olaparib; first compound 0.4 µM) | relative viability (Bemcentinib + Olaparib; first compound 1.265 µM) | relative viability (Bemcentinib + Olaparib; first compound 4 µM) | relative viability ([1]; first compound 1 µM) | relative viability ([1]; first compound 3.162 µM) | relative viability ([1]; first compound 10 µM) | relative viability ([1]; first compound 31.62 µM) | relative viability ([1]; first compound 100 µM)
PC-3 [JPC-3] | 0.724 | 0.933 | 0.802 | 0.764 | 0.732 | 0.803 | 0.948 | 0.8 | 0.906 | 0.869 | 1.08 | 1.15 | 1.17 | 1.11 | 1.06 | 0.943 | 0.896 | 0.629 | 0.635 | 0.704
HCC-366 | 0.124 | 0.206 | 0.157 | 0.124 | 0.146 | 0.985 | 1.16 | 1.35 | 1.1 | 1.06 | 0.421 | 0.35 | 0.415 | 0.387 | 0.353 | 0.0661 | 0.0593 | 0.0876 | – | 0.0623
NCI-H2405 | 0.392 | 0.513 | 0.415 | 0.517 | 0.509 | 1.01 | 0.853 | 0.985 | 1.07 | 0.938 | 0.83 | 0.938 | 0.959 | 0.975 | 0.91 | 0.708 | 0.697 | 0.573 | 0.573 | 0.627
LU99A | 0.362 | 0.356 | 0.329 | 0.346 | 0.357 | 1.11 | 1.12 | 1.01 | 1.25 | 1.2 | 0.27 | 0.259 | 0.244 | 0.259 | 0.286 | 0.304 | 0.259 | 0.31 | 0.286 | 0.25
LCLC-97TM1 | 0.16 | 0.183 | – | 0.237 | 0.249 | 0.571 | 0.794 | 0.703 | 0.602 | 0.473 | 0.411 | 0.455 | 0.476 | 0.289 | 0.382 | 0.293 | 0.178 | 0.177 | 0.148 | 0.217
A-427 | – | 0.752 | 0.723 | 0.635 | 0.663 | – | 0.971 | 0.871 | 0.942 | 0.967 | 0.737 | 0.783 | 0.853 | 0.72 | 0.71 | 0.202 | 0.18 | 0.183 | 0.203 | 0.2
EMC-BAC-2 | 0.544 | 0.561 | 0.529 | 0.548 | 0.569 | 1.07 | 1.15 | 1.07 | 0.952 | 1.11 | 0.491 | 0.511 | 0.488 | 0.468 | 0.482 | 0.272 | 0.288 | 0.283 | – | 0.248
NCI-H2228 | – | 0.444 | 0.479 | 0.535 | 0.343 | – | 1.04 | 1.12 | 0.93 | 1.08 | 0.379 | 0.616 | 0.593 | 0.707 | 0.749 | 0.247 | 0.147 | 0.209 | 0.154 | 0.135
IA-LM | 0.33 | 0.374 | 0.397 | 0.304 | 0.33 | 0.663 | 0.696 | 0.799 | 0.923 | 0.808 | 0.799 | 0.913 | 0.885 | 0.859 | 0.89 | – | – | – | – | –
NCI-H838 | 0.441 | 0.442 | 0.639 | 0.485 | 0.459 | 1.01 | 0.748 | 0.986 | 0.763 | 0.834 | 0.795 | 0.933 | 0.915 | 0.864 | 0.774 | 0.265 | 0.24 | 0.237 | 0.222 | 0.208
COR-L 105 | 0.292 | 0.43 | 0.408 | 0.378 | 0.387 | 0.766 | 0.71 | 1.04 | 0.739 | 0.74 | 0.635 | 0.762 | 0.752 | 0.737 | 0.64 | 0.346 | 0.358 | 0.368 | 0.31 | 0.316
NCI-H358 | 0.331 | 0.347 | 0.336 | 0.372 | 0.359 | – | – | – | – | – | 0.59 | 0.622 | 0.598 | 0.593 | 0.669 | 0.112 | 0.0941 | 0.101 | 0.104 | 0.0923
SK-MES-1 | 0.303 | 0.379 | 0.404 | 0.361 | 0.374 | – | – | – | – | – | 0.833 | 0.771 | 0.734 | 0.823 | 0.682 | 0.805 | 0.749 | 0.613 | 0.392 | 0.404
LCLC-103H | 0.588 | 0.632 | 0.692 | 0.604 | 0.616 | 1.06 | 1.03 | 1.09 | 1.1 | 1.01 | 0.802 | 0.811 | 0.796 | 0.86 | 0.783 | 0.462 | 0.452 | 0.485 | 0.396 | 0.46
HARA | 0.407 | 0.423 | 0.338 | 0.392 | 0.371 | 1.19 | 1.17 | 1.27 | 1.15 | 1.1 | 0.778 | 1.17 | 1.14 | 0.929 | 0.76 | – | 0.107 | 0.117 | – | 0.0634
ABC-1 | 0.688 | 0.736 | 0.731 | 0.77 | 0.955 | 0.269 | 0.285 | 0.289 | 0.285 | 0.257 | 0.627 | 0.843 | 0.855 | 0.774 | 0.792 | 0.204 | 0.167 | 0.188 | 0.229 | 0.173
NCI-H727 | 0.221 | 0.358 | 0.413 | 0.41 | 0.456 | 0.691 | 1.12 | 0.918 | 0.746 | 1.1 | 0.678 | 0.618 | 0.813 | 0.52 | 0.747 | 0.505 | 0.657 | 0.52 | – | 0.579
